Experimental data as given in PubChem BioAssay AID248 (DTP/NCI, 2004).
“And” between values parts separate entries of the source, which are not always exact repeats. Equal values may be shown once. Inconclusive results and toxic doses are left out. No stated cut-off is given here; in the data, active means T/C of 150% or more; inactive means T/C below 125%.

System: L1210 leukemia ip in BDF1 mice, survival T/C
Experiment: NCI In Vivo Anticancer Drug Screen. Data for tumor model L1210 Leukemia (intraperitoneal) in B6D2F1 (BDF1) mice
Conditions: endpoint: mean survival time, higher = longer survival
Outline: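 Ratio derived from survival: compound-dosed mice over vehicle-dosed mice, all bearing a transplantable tumor.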

[1] = dose: 50.0 mg/kg/injection, schedule: Q01DX009 (ip), vehicle: Klucel (hydroxypropylcellulose) (HPC)
[2] = dose: 100.0 mg/kg/injection, schedule: Q01DX009 (ip), vehicle: Klucel (hydroxypropylcellulose) (HPC)
[3] = dose: 100.0 mg/kg/injection, schedule: Q04DX003 (ip), vehicle: Klucel (hydroxypropylcellulose) (HPC)
[4] = dose: 200.0 mg/kg/injection, schedule: Q04DX003 (ip), vehicle: Klucel (hydroxypropylcellulose) (HPC)
[5] = dose: 100.0 mg/kg/injection, schedule: Q01DX009 (ip), vehicle: saline with Tween-80
[6] = dose: 200.0 mg/kg/injection, schedule: Q01DX009 (ip), vehicle: saline with Tween-80
[7] = dose: 400.0 mg/kg/injection, schedule: Q01DX009 (ip), vehicle: saline with Tween-80
[8] = dose: 200.0 mg/kg/injection, schedule: Q01DX009 (ip), vehicle: Klucel (hydroxypropylcellulose) (HPC)
[9] = dose: 400.0 mg/kg/injection, schedule: Q04DX003 (ip), vehicle: Klucel (hydroxypropylcellulose) (HPC)
[10] = dose: 400.0 mg/kg/injection, schedule: Q01DX009 (ip), vehicle: Klucel (hydroxypropylcellulose) (HPC)
[11] = dose: 100.0 mg/kg/injection, schedule: Q01DX001 (ip), vehicle: Klucel (hydroxypropylcellulose) (HPC)
[12] = dose: 200.0 mg/kg/injection, schedule: Q01DX001 (ip), vehicle: Klucel (hydroxypropylcellulose) (HPC)
[13] = dose: 400.0 mg/kg/injection, schedule: Q01DX001 (ip), vehicle: Klucel (hydroxypropylcellulose) (HPC)
[14] = dose: 100.0 mg/kg/injection, schedule: Q01DX001 (ip), vehicle: saline
[15] = dose: 200.0 mg/kg/injection, schedule: Q01DX001 (ip), vehicle: saline
[16] = dose: 400.0 mg/kg/injection, schedule: Q01DX001 (ip), vehicle: saline
[17] = dose: 100.0 mg/kg/injection, schedule: Q04DX002 (ip), vehicle: Klucel (hydroxypropylcellulose) (HPC)
[18] = dose: 200.0 mg/kg/injection, schedule: Q04DX002 (ip), vehicle: Klucel (hydroxypropylcellulose) (HPC)
[19] = dose: 100.0 mg/kg/injection, schedule: Q04DX002 (ip), vehicle: saline
[20] = dose: 200.0 mg/kg/injection, schedule: Q04DX002 (ip), vehicle: saline

Measured: T/C

O=S(=O)(O)c1ccc(-c2ccccc2)cc1
inactive: [1] 106 % of control | [2] 94 % of control | [3] 89 % of control | [4] 94 % of control

CC(=O)OC1CCC2(C)C(=CCC3C2CCC2(C)c4c(-c5ccccc5)nn(-c5ccccc5)c4CC32)C1 (stereo not given)
inactive: dose: 12.5 mg/kg/injection, schedule: Q04DX002 (ip), vehicle: Klucel (hydroxypropylcellulose) (HPC) 96 % of control | dose: 25.0 mg/kg/injection, schedule: Q04DX002 (ip), vehicle: Klucel (hydroxypropylcellulose) (HPC) 96 % of control | dose: 50.0 mg/kg/injection, schedule: Q04DX002 (ip), vehicle: Klucel (hydroxypropylcellulose) (HPC) 101 % of control

CC(=O)COc1ccccc1-c1ccccc1
inactive: [5] 97 % of control | [6] 101 % of control | [7] 100 % of control

Cc1nc2ccccc2o1
inactive: dose: 100.0 mg/kg/injection, schedule: Q04DX002 (ip), vehicle: other 104 % of control | dose: 200.0 mg/kg/injection, schedule: Q04DX002 (ip), vehicle: other 96 % of control | dose: 400.0 mg/kg/injection, schedule: Q04DX002 (ip), vehicle: other 118 % of control

CC1(C)CCCC/C1=N\NC(N)=O
inactive: dose: 37.5 mg/kg/injection, schedule: Q01DX009 (ip), vehicle: saline with Tween-80 98 % of control | dose: 75.0 mg/kg/injection, schedule: Q01DX001 (ip), vehicle: other 102 % of control | dose: 75.0 mg/kg/injection, schedule: Q01DX009 (ip), vehicle: saline with Tween-80 96 % of control | dose: 75.0 mg/kg/injection, schedule: Q04DX003 (ip), vehicle: saline sonified 98 % of control | dose: 150.0 mg/kg/injection, schedule: Q01DX001 (ip), vehicle: other 102 % of control | dose: 150.0 mg/kg/injection, schedule: Q01DX009 (ip), vehicle: saline with Tween-80 94 % of control | dose: 150.0 mg/kg/injection, schedule: Q04DX003 (ip), vehicle: saline sonified 87 % of control | dose: 300.0 mg/kg/injection, schedule: Q01DX001 (ip), vehicle: other 102 % of control

Cc1ccc(NC(=O)NC2CCCCC2)cc1
inactive: [5] 94 % of control | [6] 97 % of control | [7] 92 % of control

O=c1[nH]c(CC(O)C(Cl)(Cl)Cl)nc2ccccc12 (stereo not given)
inactive: [1] 100 % of control | [2] 100 % of control | [8] 103 % of control

CCOC(=O)NC(S(=O)(=O)O)S(=O)(=O)O.[Tl]
inactive: dose: 25.0 mg/kg/injection, schedule: Q01DX001 (ip), vehicle: saline with Tween-80 102 % of control

COC(=O)C1=C(C)NC(=S)NC1c1ccc(N(CCCl)CCCl)cc1Cl (stereo not given)
inactive: [3] 95 % of control | [4] 95 % of control | [9] 101 % of control

Cc1ccc(NC(=O)OCC2CC3C=CC2C3)cc1 (stereo not given)
inactive: [2] 98 % of control | [8] 102 % of control | [10] 100 % of control

O=C(Nc1cccc(O)c1)Nc1cc([N+](=O)[O-])ccc1F
inactive: [11] 91 % of control | [2] 100 % of control and 90 % of control | [3] 93 % of control | [12] 98 % of control | [8] 94 % of control and 95 % of control | [4] 102 % of control | [13] 94 % of control | [10] 94 % of control and 100 % of control | [9] 95 % of control

CCN(CC)C(=O)O/N=C/c1ccccc1
inactive: [14] 94 % of control | [15] 91 % of control | [16] 96 % of control

CCCCNC(=O)C(=O)NCCCC
inactive: [11] 108 % of control | dose: 100.0 mg/kg/injection, schedule: Q01DX009 (ip), vehicle: other 90 % of control | [17] 96 % of control | [12] 103 % of control | dose: 200.0 mg/kg/injection, schedule: Q01DX009 (ip), vehicle: other 94 % of control | [18] 96 % of control | [13] 97 % of control | dose: 400.0 mg/kg/injection, schedule: Q01DX009 (ip), vehicle: other 95 % of control | dose: 400.0 mg/kg/injection, schedule: Q04DX002 (ip), vehicle: Klucel (hydroxypropylcellulose) (HPC) 103 % of control

O=Cc1c[nH]c2ccccc12
inactive: [14] 104 % of control | [2] 103 % of control | [3] 110 % of control | [15] 98 % of control | [8] 102 % of control | [4] 105 % of control | [16] 97 % of control | [10] 107 % of control | [9] 98 % of control

C[C@@H](N)[C@@H](O)c1ccccc1
inactive: dose: 30.0 mg/kg/injection, schedule: Q01DX Z (oral), vehicle: saline 101 % of control | dose: 60.0 mg/kg/injection, schedule: Q01DX Z (oral), vehicle: saline 101 % of control

O=C(CCl)c1ccc(Oc2ccccc2)cc1
inactive: dose: 20.0 mg/kg/injection, schedule: Q01DX009 (ip), vehicle: Klucel (hydroxypropylcellulose) (HPC) 103 % of control | dose: 20.0 mg/kg/injection, schedule: Q04DX003 (ip), vehicle: Klucel (hydroxypropylcellulose) (HPC) 107 % of control | dose: 40.0 mg/kg/injection, schedule: Q01DX009 (ip), vehicle: Klucel (hydroxypropylcellulose) (HPC) 100 % of control | dose: 40.0 mg/kg/injection, schedule: Q04DX003 (ip), vehicle: Klucel (hydroxypropylcellulose) (HPC) 104 % of control | dose: 80.0 mg/kg/injection, schedule: Q04DX003 (ip), vehicle: Klucel (hydroxypropylcellulose) (HPC) 105 % of control | [3] 89 % of control

CCCC(CCC#N)C(=O)c1ccccc1 (stereo not given)
inactive: [11] 91 % of control | [12] 98 % of control | [13] 95 % of control

CCCCCCCCOc1ccc(C2=NN(c3ccccc3)C(=O)C2)cc1
inactive: dose: 50.0 mg/kg/injection, schedule: Q04DX003 (ip), vehicle: Klucel (hydroxypropylcellulose) (HPC) 110 % of control | [11] 96 % of control | [3] 90 % of control | [12] 100 % of control | [4] 100 % of control | [13] 102 % of control

Cc1cc(=O)[nH]c2c1CCCCC2
inactive: [11] 98 % of control | [12] 96 % of control | [13] 96 % of control

O=CC(O)C(O)C(O)C(O)COC(=S)OCC(O)C(O)C(O)C(O)C=O (stereo not given) (tested in a mixture with another compound)
inactive: [19] 110 % of control | [20] 100 % of control | dose: 400.0 mg/kg/injection, schedule: Q04DX002 (ip), vehicle: saline 95 % of control

O=C(NO)c1cnccn1
inactive: dose: 296.0 mg/kg/injection, schedule: Q01DX015 (ip), vehicle: water 92 % of control | dose: 666.0 mg/kg/injection, schedule: Q01DX015 (ip), vehicle: water 118 % of control | dose: 1000.0 mg/kg/injection, schedule: Q01DX015 (ip), vehicle: water 120 % of control

CCOC(OCC)C(=O)NNC(C)C
inactive: dose: 25.0 mg/kg/injection, schedule: Q01DX009 (ip), vehicle: saline 95 % of control | dose: 50.0 mg/kg/injection, schedule: Q01DX009 (ip), vehicle: saline 97 % of control | dose: 100.0 mg/kg/injection, schedule: Q01DX009 (ip), vehicle: saline 108 % of control

Cc1ccc(S(=O)(=O)Nc2cc(C)cc(CCNC=O)c2C)cc1
inactive: dose: 50.0 mg/kg/injection, schedule: Q01DX001 (ip), vehicle: carboxymethylcellulose (CMC) 114 % of control | dose: 100.0 mg/kg/injection, schedule: Q01DX001 (ip), vehicle: carboxymethylcellulose (CMC) 109 % of control | dose: 200.0 mg/kg/injection, schedule: Q01DX001 (ip), vehicle: carboxymethylcellulose (CMC) 95 % of control | dose: 400.0 mg/kg/injection, schedule: Q01DX001 (ip), vehicle: carboxymethylcellulose (CMC) 93 % of control

N=C(OC1CCCCC1)N1CCCC1
inactive: dose: 22.0 mg/kg/injection, schedule: Q01DX Z (ip), vehicle: saline 98 % of control | dose: 33.0 mg/kg/injection, schedule: Q01DX Z (ip), vehicle: saline 98 % of control | dose: 50.0 mg/kg/injection, schedule: Q01DX Z (ip), vehicle: saline 98 % of control

C/C(=N\O)c1c[nH]c(=O)[nH]c1=O
inactive: [17] 94 % of control | [18] 103 % of control

CNC(=O)C(C)NC(C)=O (stereo not given)
inactive: dose: 50.0 mg/kg/injection, schedule: Q04DX002 (ip), vehicle: saline 99 % of control | [19] 102 % of control | [20] 105 % of control
